Assay results published in BigSolDB 2.1.

O=C(O)c1cccnc1Nc1cccc(C(F)(F)F)c1
solubility (mole fraction)
Settings	288.15 K	293.15 K	298.15 K	303.15 K	308.15 K	313.15 K	318.15 K	323.15 K	328.15 K
in MTBE	0.0428	0.0471	0.0505	0.0549	0.0591	0.0663	0.073	0.08	0.0854
in acetone	0.0273	0.0296	0.0315	0.034	0.037	0.0418	0.048	0.053	0.0572
in acetonitrile	–	0.00125	0.0018	0.00235	0.00319	0.00437	0.00595	0.00745	0.00898
in cyclohexane	0.00268	0.00379	0.00512	0.00674	0.00887	0.0114	0.0137	0.0158	0.0182
in diisopropyl ether	0.00814	0.0119	0.0146	0.0183	0.022	0.0262	0.0303	0.0357	0.0424
in ethanol	0.00748	0.00873	0.00935	0.0113	0.0133	0.0153	0.0177	0.0197	0.0211
in ethyl acetate	0.0243	0.0261	0.0279	0.0308	0.0346	0.0393	0.0439	0.0494	0.0544
